“Also recorded” adds a separate entry of the source. Each block holds one molecule with its values, some of them ahead of it.
What was measured:
PRMT7 [1] = molecular target: PRMT7 (Homo sapiens, UniProt Q9NVM4); settings: cited from earlier work
PRMT4 [2] = molecular target: T1, PRMT4 (Homo sapiens, UniProt Q86X55); test: thermal shift assay PRMT4; type: binding; settings: 100 μM compound, 20 μM protein
T1 construct: PRMT4 (residues 140-480) was cloned into the pFBOH-MHL vector; tag of the pFBOH-MHL vector (poly-His implied by Ni-NTA purification; not described); made in house; host or cells: Sf9 insect cells
Method: (§1) The fluorescence-based thermal shift assay was performed using a StepOne plus qPCR instrument (Thermal Fisher). For PRMT1, 10 μM of protein was mixed with 2× sypro orange and DMSO, or 100 μM SAM, or 100 μM YD1113, or 100 μM YD1290 in a buffer consisting of 2.5 mM HEPES (pH=7.0), 25 mM NaCl, 25 μM EDTA, 50 μM TCEP, 0.01% Triton X-100. For PRMT3, 20 μM of protein was mixed with 2× sypro orange and DMSO, or 100 μM SAM, or 100 μM YD1113, or 100 μM YD1290 in a buffer consisting of 20 mM Tris (pH=7.5), 0.01% Triton X-100. For PRMT4, 20 μM of protein was mixed with 2× sypro orange and DMSO, or 100 μM SAM, or 100 μM YD1113, or 100 μM YD1290 in a buffer consisting of 20 mM bicine (pH=8.5), 0.01% Triton X-100. All samples were heated from 25° C. to 75° C. at an increased rate of 0.5° C. per minute. Protein denaturation was monitored by the increased fluorescence signal of Sypro Orange, which captures exposed hydrophobic residues during thermal unfolding. The recorded curves were analyzed by the software StepOne plus and plotted in GraphPad Prism 8 software.
(§2) Next, the thermal shift assay (TSA) was conducted as an orthogonal method to examine the effects of YD1290 on the thermal stability of PRMT1, 3, and 4 (Figure S1).

PRMT3 [3] = molecular target: T2, PRMT3 (Homo sapiens, UniProt O60678); test: thermal shift assay PRMT3; type: binding; set-up: PRMT3 (residues 211-531) was cloned into the pET28a-MHL expression vector; tag of the pET28a-MHL vector (not described); made in house; host or cells: Escherichia coli BL21(DE3); settings: 100 μM compound, 20 μM protein
T2 sequence (O60678 211-531): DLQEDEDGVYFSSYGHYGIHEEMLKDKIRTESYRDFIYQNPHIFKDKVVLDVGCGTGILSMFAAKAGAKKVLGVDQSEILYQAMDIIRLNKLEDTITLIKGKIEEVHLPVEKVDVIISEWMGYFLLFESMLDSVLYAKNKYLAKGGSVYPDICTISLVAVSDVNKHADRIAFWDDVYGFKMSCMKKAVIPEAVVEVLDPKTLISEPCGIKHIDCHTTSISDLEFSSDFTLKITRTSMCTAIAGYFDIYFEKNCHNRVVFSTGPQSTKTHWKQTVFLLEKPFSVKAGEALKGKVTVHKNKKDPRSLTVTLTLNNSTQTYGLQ
Method: as §1, §2

PRMT1 [4] = molecular target: T3, PRMT1 (Homo sapiens, UniProt Q99873); test: thermal shift assay PRMT1; type: binding; settings: 100 μM compound, 10 μM protein
T3 construct: made in house
T3 sequence (Q99873 whole entry, species assumed): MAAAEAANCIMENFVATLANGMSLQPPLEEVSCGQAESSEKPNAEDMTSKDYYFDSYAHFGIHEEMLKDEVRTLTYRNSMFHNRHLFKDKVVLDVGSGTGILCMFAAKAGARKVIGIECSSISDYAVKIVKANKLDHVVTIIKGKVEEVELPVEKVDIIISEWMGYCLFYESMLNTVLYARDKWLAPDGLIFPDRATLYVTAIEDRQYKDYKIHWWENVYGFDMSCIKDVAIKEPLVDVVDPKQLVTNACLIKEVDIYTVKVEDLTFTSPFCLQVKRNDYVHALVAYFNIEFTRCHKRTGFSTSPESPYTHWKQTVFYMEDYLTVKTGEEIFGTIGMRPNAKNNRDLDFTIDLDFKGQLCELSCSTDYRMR
Method: as §1, §2

PRMT4/5 = test: inhibition of PRMT4/5 (figure legend); type: biochemical
PRMT4 [5] = molecular target: T4, PRMT4 (Homo sapiens, UniProt Q86X55); test: radioactive assay (Reaction Biology Corp.), inhibition of PRMT4; type: biochemical
T4 sequence (Q86X55 1-608): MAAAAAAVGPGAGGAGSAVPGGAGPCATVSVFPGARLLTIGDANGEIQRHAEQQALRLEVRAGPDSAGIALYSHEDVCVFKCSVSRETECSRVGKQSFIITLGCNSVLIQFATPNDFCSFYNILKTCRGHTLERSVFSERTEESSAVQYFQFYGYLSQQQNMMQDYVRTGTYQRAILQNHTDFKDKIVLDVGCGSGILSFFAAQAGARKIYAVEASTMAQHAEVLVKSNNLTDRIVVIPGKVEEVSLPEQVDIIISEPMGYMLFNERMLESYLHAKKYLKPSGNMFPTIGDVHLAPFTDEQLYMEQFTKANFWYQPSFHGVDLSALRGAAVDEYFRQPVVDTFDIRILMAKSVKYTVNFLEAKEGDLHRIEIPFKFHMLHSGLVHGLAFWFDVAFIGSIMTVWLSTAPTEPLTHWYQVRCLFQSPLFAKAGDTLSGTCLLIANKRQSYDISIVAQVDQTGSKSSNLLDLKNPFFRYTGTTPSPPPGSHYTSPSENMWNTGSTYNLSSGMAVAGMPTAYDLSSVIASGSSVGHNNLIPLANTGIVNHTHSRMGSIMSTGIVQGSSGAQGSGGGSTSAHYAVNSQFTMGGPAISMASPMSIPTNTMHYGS
Method: (§3) Next, the inhibition activity of the library was investigated for five PRMT members from type I PRMTs.
(§4) The PRMT 4, 6 and 8 methylation assays were performed by Reaction Biology corp.

PRMT4/7 = settings: previously reported; cited from earlier work
PRMT1 [6] = molecular target: T3, PRMT1; test: SAHH-coupled fluorescence assay, inhibition of PRMT1; type: biochemical
In short: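 PRMT1 (0.1 μM) was run with 10 μM AdoMet, 5 μM SAHH and 10 μM ThioGlo4 in 2.5 mM HEPES pH 7.0, 25 mM NaCl, 25 μM EDTA, 50 μM TCEP and 0.01% Triton X-100. Fluorescence (ex 400/em 465 nm) was monitored for 15 min. Assays were done in duplicate.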

PRMT6 [7] = molecular target: T5, PRMT6 (Homo sapiens, UniProt Q96LA8); test: radioactive assay (Reaction Biology Corp.), inhibition of PRMT6; type: biochemical
T5 sequence (Q96LA8 whole entry, species assumed): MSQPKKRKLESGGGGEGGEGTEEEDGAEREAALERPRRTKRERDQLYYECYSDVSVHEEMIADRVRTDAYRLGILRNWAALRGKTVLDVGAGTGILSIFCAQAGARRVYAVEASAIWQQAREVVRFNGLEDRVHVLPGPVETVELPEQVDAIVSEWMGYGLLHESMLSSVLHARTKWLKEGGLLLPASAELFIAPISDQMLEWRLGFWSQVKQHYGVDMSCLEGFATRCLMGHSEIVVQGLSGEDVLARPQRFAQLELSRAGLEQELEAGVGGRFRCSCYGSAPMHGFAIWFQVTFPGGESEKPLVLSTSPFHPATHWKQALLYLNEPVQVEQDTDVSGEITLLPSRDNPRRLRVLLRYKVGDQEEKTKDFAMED
Method: as §3, §4

PRMT8 [8] = molecular target: T6, PRMT8 (Homo sapiens, UniProt Q9NR22); test: radioactive assay (Reaction Biology Corp.), inhibition of PRMT8; type: biochemical
T6 sequence (Q9NR22 whole entry, species assumed): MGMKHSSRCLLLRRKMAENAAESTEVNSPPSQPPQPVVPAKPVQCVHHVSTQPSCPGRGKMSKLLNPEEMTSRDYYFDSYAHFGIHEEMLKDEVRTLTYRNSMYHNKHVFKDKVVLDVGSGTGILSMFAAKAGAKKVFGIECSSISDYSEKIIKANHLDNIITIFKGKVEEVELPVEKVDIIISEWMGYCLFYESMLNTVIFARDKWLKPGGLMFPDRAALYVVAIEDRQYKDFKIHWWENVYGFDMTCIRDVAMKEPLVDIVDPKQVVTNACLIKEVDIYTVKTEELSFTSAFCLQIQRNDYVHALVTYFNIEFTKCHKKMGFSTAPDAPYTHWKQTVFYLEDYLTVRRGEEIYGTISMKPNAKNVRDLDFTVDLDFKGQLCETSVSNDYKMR
Method: as §3, §4

PRMT3 [9] = molecular target: T2, PRMT3; test: SAHH-coupled fluorescence assay, inhibition of PRMT3; type: biochemical; set-up: PRMT3 (residues 211-531) was cloned into the pET28a-MHL expression vector; tag of the pET28a-MHL vector (not described); made in house; host or cells: Escherichia coli BL21(DE3)
In short: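 Coupled SAHH/ThioGlo4 fluorescence read-out (ex 380 nm, em 505 nm) of PRMT3 (0.25 μM) methylation with 30 μM AdoMet and 5 μM SAHH. Buffer was 20 mM Tris pH 7.5 with 0.01% Triton X-100. Run in duplicate.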

PRMT3 [10] = test: selectivity of YD1113/YD1290 on PRMT panel, PRMT3; type: biochemical
Method: (§5) The selectivity of compounds YD1113 and YD1290 on PRMTs were performed by Reaction Biology Corp.
(§6) Next, the selectivity of YD1113 was investigated on a panel of PRMTs at 10 μM.
(§7) After validating the benzyl urea moiety as an unconventional homocysteine mimic of SAH for PRMTs, it was hypothesized that incorporating the benzyl urea moiety into the original pan PRMT inhibitor II757 would build a potent bisubstrate inhibitor. […] To enable a stable tri-substitution, the sulfur atom with a nitrogen atom was replaced. YD1290 was synthesized following the reported methods 9, 15 and tested in a radioactivity assay for PRMTs (FIG. 6b).

PRMT7 [11] = test: selectivity of YD1113 on PRMT panel, PRMT7; type: biochemical
Method: as §5, §6

PRMT3 [12] = test: SAHH-coupled fluorescence assay, inhibition of PRMT3; type: biochemical; settings: read-out: IC50[μM] | PRMT3
Method: A fluorescence-based SAHH-coupled assay was applied to study the inhibition activity of all synthesized compounds on PRMT 1 and 3.
(§8) The PRMT3 methylation assay was performed under the following conditions in a final well volume of 100 μL: 20 mM Tris (pH=7.5), 0.01% Triton X-100, 5 μM SAHH, 0.25 μM PRMT3, 30 μM AdoMet, and 15 μM ThioGlo4. […] Fluorescence was monitored on a BMG CLARIOstar microplate reader with excitation 380 nm and emission 505 nm. Data were processed by using GraphPad Prism software 8.0. All experiments were performed in duplicate.
as §3
as §8, with “8.0.” for “8.0. All experiments were performed in duplicate.”

PRMTs = settings: cited from earlier work
PRMT4 [13] = test: selectivity of YD1113/YD1290 on PRMT panel, PRMT4; type: biochemical
Method: as §5, §6, §7

PRMT5 = PRMT5 (Homo sapiens, UniProt O14744); test: selectivity of YD1113 on PRMT panel, PRMT5; type: biochemical; settings: read-out: IC50 (nM) | PRMT5
Sequence of PRMT5 (O14744 whole entry, species assumed): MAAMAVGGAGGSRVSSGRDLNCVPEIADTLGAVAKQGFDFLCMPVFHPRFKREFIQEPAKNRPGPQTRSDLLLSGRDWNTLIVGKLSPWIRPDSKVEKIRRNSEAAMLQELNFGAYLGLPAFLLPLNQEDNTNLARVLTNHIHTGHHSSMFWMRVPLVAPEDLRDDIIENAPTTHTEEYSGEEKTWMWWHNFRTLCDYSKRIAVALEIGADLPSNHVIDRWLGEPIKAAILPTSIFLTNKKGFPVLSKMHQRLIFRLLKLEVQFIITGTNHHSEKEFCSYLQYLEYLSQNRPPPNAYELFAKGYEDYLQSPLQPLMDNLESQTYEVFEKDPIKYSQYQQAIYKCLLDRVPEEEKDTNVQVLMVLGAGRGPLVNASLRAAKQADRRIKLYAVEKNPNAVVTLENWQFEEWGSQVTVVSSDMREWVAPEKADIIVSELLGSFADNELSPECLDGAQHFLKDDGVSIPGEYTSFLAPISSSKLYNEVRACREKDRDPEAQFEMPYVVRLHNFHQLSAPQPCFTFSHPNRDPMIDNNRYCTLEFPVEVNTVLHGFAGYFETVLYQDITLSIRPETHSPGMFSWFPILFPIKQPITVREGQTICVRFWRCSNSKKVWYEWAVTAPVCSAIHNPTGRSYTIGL
Sequence of PRMT5 (Q9BQA1 whole entry partner, species assumed): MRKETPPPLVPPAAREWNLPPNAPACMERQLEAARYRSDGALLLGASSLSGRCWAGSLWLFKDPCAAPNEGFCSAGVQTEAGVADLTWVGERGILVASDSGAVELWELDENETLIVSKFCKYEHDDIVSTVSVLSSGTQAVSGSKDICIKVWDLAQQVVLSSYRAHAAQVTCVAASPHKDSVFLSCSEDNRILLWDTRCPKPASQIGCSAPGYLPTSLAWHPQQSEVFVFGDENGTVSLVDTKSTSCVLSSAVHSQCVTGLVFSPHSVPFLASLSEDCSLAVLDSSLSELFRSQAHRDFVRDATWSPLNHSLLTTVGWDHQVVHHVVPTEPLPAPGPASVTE
Method: as §5, §6

PRMT1 [14] = molecular target: T3, PRMT1; test: selectivity of YD1113/YD1290 on PRMT panel, PRMT1; type: biochemical
Method: as §5, §6, §7

PRMT8 [15] = molecular target: T6, PRMT8; test: selectivity of YD1113/YD1290 on PRMT panel, PRMT8; type: biochemical
Method: as §5, §6, §7

PRMT6 [16] = molecular target: T5, PRMT6; test: selectivity of YD1113/YD1290 on PRMT panel, PRMT6; type: biochemical
Method: as §5, §6, §7

PRMT 5/7 = settings: cited from earlier work
DOT1L = settings: cited from earlier work

Sequence of PRMT7 (Homo sapiens, UniProt Q9NVM4) (Q9NVM4 whole entry, species assumed): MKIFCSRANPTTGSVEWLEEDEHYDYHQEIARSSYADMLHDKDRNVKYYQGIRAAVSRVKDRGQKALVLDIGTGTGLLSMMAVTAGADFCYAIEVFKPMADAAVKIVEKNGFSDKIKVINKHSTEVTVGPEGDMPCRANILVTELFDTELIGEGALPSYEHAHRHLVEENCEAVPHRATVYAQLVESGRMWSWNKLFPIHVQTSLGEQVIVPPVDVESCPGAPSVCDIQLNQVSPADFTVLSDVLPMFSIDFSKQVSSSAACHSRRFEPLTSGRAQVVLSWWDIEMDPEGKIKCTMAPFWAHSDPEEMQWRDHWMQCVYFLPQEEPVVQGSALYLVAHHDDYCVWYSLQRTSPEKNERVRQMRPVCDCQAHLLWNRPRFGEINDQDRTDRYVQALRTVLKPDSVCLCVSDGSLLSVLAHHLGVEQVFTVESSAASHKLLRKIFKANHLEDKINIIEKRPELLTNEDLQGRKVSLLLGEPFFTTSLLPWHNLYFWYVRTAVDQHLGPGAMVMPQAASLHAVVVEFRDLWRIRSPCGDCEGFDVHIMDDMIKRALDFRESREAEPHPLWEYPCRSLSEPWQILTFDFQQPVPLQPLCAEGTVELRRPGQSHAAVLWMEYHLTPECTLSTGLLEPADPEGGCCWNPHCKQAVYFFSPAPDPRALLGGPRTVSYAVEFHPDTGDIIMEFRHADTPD

Structure (SMILES): Nc1ncnc2c1ncn2C1OC(CSCCCCNCc2cccc(-c3ccc(Cl)cc3)c2)C(O)C1O (centres unmarked) [SGC8158]
PRMT7 inhibition (PRMT7 [1]): selectively inhibits PRMT7; also recorded: selective PRMT7 inhibition; also recorded: selective PRMT7 inhibitor

Structure (SMILES): C[S+](CC[C@H](N)C(=O)O)C[C@H]1O[C@@H](n2cnc3c(N)ncnc32)[C@H](O)[C@@H]1O (stereo partly drawn) [SAM, S-adenosyl-L-methionine, reference compound]
ΔTm PRMT4 (PRMT4 [2]): +1.9 °C
ΔTm PRMT3 (PRMT3 [3]): +1.1 °C
ΔTm PRMT1 (PRMT1 [4]): +1.6 °C

Structure (SMILES): CC(CN(CCCN)C[C@H]1O[C@@H](n2cnc3c(N)ncnc32)[C@H](O)[C@@H]1O)NC(=O)NCc1ccccc1 (some centres unmarked) [YD1288]
PRMT4/5 inhibition (PRMT4/5): dual selective and potent PRMT4/5 inhibitor

inhibition at 10 µM (PRMT4 [5]): 99%
inhibition at 10 µM (PRMT1 [6]): 65%
inhibition at 10 µM (PRMT6 [7]): 46%
inhibition at 10 µM (PRMT8 [8]): 73%
inhibition at 10 µM (PRMT3 [9]): 22%
Structure (SMILES): Nc1ncnc2c1ncn2[C@@H]1O[C@H](CSCCCNCc2cccc(-c3ccc(Cl)cc3)c2)[C@@H](O)[C@H]1O [Compound 10m]
PRMT4 inhibition (PRMT4 [5]): more potent PRMT4 inhibition activity than SGC8158
PRMT4/7 inhibition (PRMT4/7): potent PRMT4/7 inhibitor

IC50 (PRMT3 [10]): 321 nM
IC50 (PRMT7 [11]): 555 nM
IC50 (PRMT3 [12]): 2.2 ± 0.29 µM
inhibition at 10 µM (PRMT4 [5]): 100%
inhibition at 10 µM (PRMT1 [6]): 94%
IC50 (PRMT1 [6]; read-out: IC50[μM] | PRMT1): 0.08 ± 0.016 µM
inhibition at 10 µM (PRMT6 [7]): 100%
inhibition at 10 µM (PRMT8 [8]): 100%
inhibition at 10 µM (PRMT3 [9]): 68%
IC50 (PRMT4 [13]): 5.05 nM
Structure (SMILES): N=C(NCCCSC[C@H]1O[C@@H](n2cnc3c(N)ncnc32)[C@H](O)[C@@H]1O)Nc1cccc(Br)c1 [Compound 5f]
inhibition of all PRMTs (PRMTs): broad and potent inhibition to all PRMTs

IC50 (PRMT5): 136 nM
IC50 (PRMT3 [10]): 1640 nM
IC50 (PRMT7 [11]): 2640 nM
PRMT1 inhibition (PRMT1 [6]): PRMT1 inhibitors
IC50 (PRMT1 [14]): 7.6 nM
IC50 (PRMT8 [15]): 38 nM
IC50 (PRMT6 [16]): 44 nM
IC50 (PRMT4 [13]): 203 nM
Structure (SMILES): N=C(NCCCSC[C@H]1O[C@@H](n2cnc3c(NCC#Cc4ccc(O)cc4)ncnc32)C(O)[C@H]1O)Nc1cccc(Br)c1 (stereo in doubt) [YD1-250]

Structure (SMILES): CCNC(=O)NCCSC[C@H]1O[C@@H](n2cnc3c(N)ncnc32)[C@H](O)[C@@H]1O [DS-437]
PRMT 5/7 inhibition (PRMT 5/7): dual inhibition to PRMT 5/7

IC50 (PRMT5): 1790 nM
IC50 (PRMT3 [10]): 3620 nM
IC50 (PRMT7 [11]): > 30000 nM
PRMT1 inhibition (PRMT1 [6]): PRMT1 inhibitors
IC50 (PRMT1 [14]): 14 nM
IC50 (PRMT8 [15]): 40 nM
IC50 (PRMT6 [16]): 25 nM
IC50 (PRMT4 [13]): 1680 nM
Structure (SMILES): N=C(NCCCSC[C@H]1O[C@@H](n2cnc3c(NCc4cn(Cc5ccccc5)nn4)ncnc32)C(O)[C@H]1O)Nc1cccc(Br)c1 (stereo in doubt) [YD1-254]

Structure (SMILES): CC(C)N(CCCNC(=O)Nc1ccc(C(C)(C)C)cc1)C[C@H]1O[C@@H](n2ccc3c(N)ncnc32)[C@H](O)[C@@H]1O [EPZ004777]
selectivity for DOT1L (DOT1L): high selectivity

— patent US20260306527A1, “PRMT INHIBITOR COMPOUNDS AND THE USES THEREOF” (Purdue Research Foundation, priority 2023, published 2026)
